{
  "source": "patent US3985779A",
  "about": "“M-phenoxyphenyl propionic acid derivatives and preparation thereof” (Eisai Co., Ltd., priority 1973, dated 1976)",
  "key": {"[1]": {"test_system": "Carrageenin-induced edema", "test": "Inhibitory activity on Carrageenin-induced Edema in rats (Experiment A)", "format": "in vivo, rats (male Wistar)", "conditions": "3 hours after Carrageenin", "protocol": "Inhibitory activity on Carrageenin-induced Edema in rats\nCarrageenin was used as the agent for inducing edema and 5 male rats of Wistar strain having body weight of about 150 grs. after fasting for 16-17 hours were used as test animals. The inhibitory activity of the test compounds were determined with the paw edema method in accordance with Winter C. A. et al; Proc. Soc. Exp. Biol. Med. 111, 544 (1962).\nThe compounds were suspended in an aqueous solution of gum arabic and the same were orally administered to the rats at 1 hour before the injection of Carrageenin.\nThe observation was effected by measuring, after 3 hours the administration of the Carrageenin, the enlarged volumes of hind paw of the rats."}, "Kaolin-induced edema": {"test_system": "Kaolin-induced edema", "test": "Inhibitory activity on Kaolin-induced Edema in Rats (Experiment B)", "format": "in vivo"}, "Dextran-induced edema": {"test_system": "Dextran-induced edema", "test": "Inhibitory activity on dextran-induced edema in rats (Experiment C)", "format": "in vivo", "protocol": "Inhibitory activity on dextran-induced edema in rats Experiment was carried out in the manner same as those of the preceding Experiments in which dextran was employed as irritant substance."}, "ARRS-induced edema": {"test_system": "ARRS-induced edema", "test": "Inhibitory activity on anti-rat-rabbit serum (ARRS)-induced edema in rats (Experiment D)", "format": "in vivo", "protocol": "Inhibitory activity on anti-rat-rabbit serum (ARRS)-induced edema in rats Similar Experiments was carried out by using ARRS as irritant substance."}},
  "data": [
    {"smiles": "CC(C(=O)O)c1cccc(Oc2ccc(Cl)cc2)c1", "note": "(stereo not drawn) [(3), 2-[m-(p-chlorophenoxy)phenyl]propionic acid]", "values": [
      {"measurement": "% of Inhibition", "setting": "[1]; oral 3.2 mg/kg", "result": 20, "unit": "%"},
      {"measurement": "Edema density ± S.E.", "setting": "[1]; oral 3.2 mg/kg", "result": ".430 ± .068"},
      {"measurement": "% of Inhibition", "setting": "[1]; oral 80.0 mg/kg", "result": 38, "unit": "%"},
      {"measurement": "Edema density ± S.E.", "setting": "[1]; oral 80.0 mg/kg", "result": ".334 ± .055"},
      {"measurement": "Edema D. ± S.E.", "setting": "Kaolin-induced edema; after 3 hrs, oral 16 mg/kg", "result": ".418 ± .024"},
      {"measurement": "% of Inhibition", "setting": "Kaolin-induced edema; after 3 hrs, oral 80 mg/kg", "result": 29, "unit": "%"},
      {"measurement": "Edema D. ± S.E.", "setting": "Kaolin-induced edema; after 3 hrs, oral 80 mg/kg", "result": ".297 ± .085"},
      {"measurement": "% of Inhibition", "setting": "Kaolin-induced edema; after 5 hrs, oral 16 mg/kg", "result": 13, "unit": "%"},
      {"measurement": "Edema D. ± S.E.", "setting": "Kaolin-induced edema; after 5 hrs, oral 16 mg/kg", "result": ".491 ± .021"},
      {"measurement": "% of Inhibition", "setting": "Kaolin-induced edema; after 5 hrs, oral 80 mg/kg", "result": 40, "unit": "%"},
      {"measurement": "Edema D. ± S.E.", "setting": "Kaolin-induced edema; after 5 hrs, oral 80 mg/kg", "result": ".340 ± .107"},
      {"measurement": "% of Inhibition", "setting": "Kaolin-induced edema; after 7 hrs, oral 16 mg/kg", "result": 14, "unit": "%"},
      {"measurement": "Edema D. ± S.E.", "setting": "Kaolin-induced edema; after 7 hrs, oral 16 mg/kg", "result": ".524 ± .037"},
      {"measurement": "% of Inhibition", "setting": "Kaolin-induced edema; after 7 hrs, oral 80 mg/kg", "result": 27, "unit": "%"},
      {"measurement": "Edema D. ± S.E.", "setting": "Kaolin-induced edema; after 7 hrs, oral 80 mg/kg", "result": ".442 ± .119"},
      {"measurement": "% of Inhibition", "setting": "Dextran-induced edema; after 2 hrs, oral 16 mg/kg", "result": 6, "unit": "%"},
      {"measurement": "Edema D. ± S.E.", "setting": "Dextran-induced edema; after 2 hrs, oral 16 mg/kg", "result": ".782 ± .062"},
      {"measurement": "% of Inhibition", "setting": "Dextran-induced edema; after 2 hrs, oral 80 mg/kg", "result": 7, "unit": "%"},
      {"measurement": "Edema D. ± S.E.", "setting": "Dextran-induced edema; after 2 hrs, oral 80 mg/kg", "result": ".776 ± .022"},
      {"measurement": "% of Inhibition", "setting": "Dextran-induced edema; after 3 hrs, oral 16 mg/kg", "result": 5, "unit": "%"},
      {"measurement": "Edema D. ± S.E.", "setting": "Dextran-induced edema; after 3 hrs, oral 16 mg/kg", "result": ".713 ± .036"},
      {"measurement": "% of Inhibition", "setting": "Dextran-induced edema; after 3 hrs, oral 80 mg/kg", "result": 4, "unit": "%"},
      {"measurement": "Edema D. ± S.E.", "setting": "Dextran-induced edema; after 3 hrs, oral 80 mg/kg", "result": ".723 ± .027"},
      {"measurement": "% of Inhibition", "setting": "ARRS-induced edema; after 2 hrs, oral 16 mg/kg", "result": 10, "unit": "%"},
      {"measurement": "Edema D. ± S.E.", "setting": "ARRS-induced edema; after 2 hrs, oral 16 mg/kg", "result": ".613 ± .054"},
      {"measurement": "% of Inhibition", "setting": "ARRS-induced edema; after 2 hrs, oral 80 mg/kg", "result": 1, "unit": "%"},
      {"measurement": "Edema D. ± S.E.", "setting": "ARRS-induced edema; after 2 hrs, oral 80 mg/kg", "result": ".672 ± .036"},
      {"measurement": "% of Inhibition", "setting": "ARRS-induced edema; after 3 hrs, oral 16 mg/kg", "result": 16, "unit": "%"},
      {"measurement": "Edema D. ± S.E.", "setting": "ARRS-induced edema; after 3 hrs, oral 16 mg/kg", "result": ".599 ± .065"},
      {"measurement": "% of Inhibition", "setting": "ARRS-induced edema; after 3 hrs, oral 80 mg/kg", "result": 11, "unit": "%"},
      {"measurement": "Edema D. ± S.E.", "setting": "ARRS-induced edema; after 3 hrs, oral 80 mg/kg", "result": ".634 ± .016"}
    ]},
    {"smiles": "CC(C(=O)O)c1cccc(Oc2ccc(Cl)cc2)c1", "note": "(stereo not drawn) [(4)]", "values": [
      {"measurement": "% of Inhibition", "setting": "[1]; oral 8.0 mg/kg", "result": 12, "unit": "%"},
      {"measurement": "Edema density ± S.E.", "setting": "[1]; oral 8.0 mg/kg", "result": ".477 ± .049"},
      {"measurement": "% of Inhibition", "setting": "[1]; oral 40.0 mg/kg", "result": 46, "unit": "%"},
      {"measurement": "Edema density ± S.E.", "setting": "[1]; oral 40.0 mg/kg", "result": ".293 ± .056"},
      {"measurement": "% of Inhibition", "setting": "Kaolin-induced edema; after 3 hrs, oral 8 mg/kg", "result": 12, "unit": "%"},
      {"measurement": "Edema D. ± S.E.", "setting": "Kaolin-induced edema; after 3 hrs, oral 8 mg/kg", "result": ".369 ± .048"},
      {"measurement": "% of Inhibition", "setting": "Kaolin-induced edema; after 3 hrs, oral 40 mg/kg", "result": 35, "unit": "%"},
      {"measurement": "Edema D. ± S.E.", "setting": "Kaolin-induced edema; after 3 hrs, oral 40 mg/kg", "result": ".271 ± .075"},
      {"measurement": "% of Inhibition", "setting": "Kaolin-induced edema; after 5 hrs, oral 8 mg/kg", "result": 8, "unit": "%"},
      {"measurement": "Edema D. ± S.E.", "setting": "Kaolin-induced edema; after 5 hrs, oral 8 mg/kg", "result": ".519 ± .035"},
      {"measurement": "% of Inhibition", "setting": "Kaolin-induced edema; after 5 hrs, oral 40 mg/kg", "result": 41, "unit": "%"},
      {"measurement": "Edema D. ± S.E.", "setting": "Kaolin-induced edema; after 5 hrs, oral 40 mg/kg", "result": ".333 ± .073"},
      {"measurement": "% of Inhibition", "setting": "Kaolin-induced edema; after 7 hrs, oral 8 mg/kg", "result": -3, "unit": "%"},
      {"measurement": "Edema D. ± S.E.", "setting": "Kaolin-induced edema; after 7 hrs, oral 8 mg/kg", "result": ".625 ± .040"},
      {"measurement": "% of Inhibition", "setting": "Kaolin-induced edema; after 7 hrs, oral 40 mg/kg", "result": 35, "unit": "%"},
      {"measurement": "Edema D. ± S.E.", "setting": "Kaolin-induced edema; after 7 hrs, oral 40 mg/kg", "result": ".396 ± .072"},
      {"measurement": "% of Inhibition", "setting": "Dextran-induced edema; after 2 hrs, oral 8 mg/kg", "result": 10, "unit": "%"},
      {"measurement": "Edema D. ± S.E.", "setting": "Dextran-induced edema; after 2 hrs, oral 8 mg/kg", "result": ".753 ± .052"},
      {"measurement": "% of Inhibition", "setting": "Dextran-induced edema; after 2 hrs, oral 40 mg/kg", "result": 6, "unit": "%"},
      {"measurement": "Edema D. ± S.E.", "setting": "Dextran-induced edema; after 2 hrs, oral 40 mg/kg", "result": ".780 ± .033"},
      {"measurement": "% of Inhibition", "setting": "Dextran-induced edema; after 3 hrs, oral 8 mg/kg", "result": 10, "unit": "%"},
      {"measurement": "Edema D. ± S.E.", "setting": "Dextran-induced edema; after 3 hrs, oral 8 mg/kg", "result": ".780 ± .033"},
      {"measurement": "% of Inhibition", "setting": "Dextran-induced edema; after 3 hrs, oral 40 mg/kg", "result": 8, "unit": "%"},
      {"measurement": "Edema D. ± S.E.", "setting": "Dextran-induced edema; after 3 hrs, oral 40 mg/kg", "result": ".692 ± .048"},
      {"measurement": "% of Inhibition", "setting": "ARRS-induced edema; after 2 hrs, oral 8 mg/kg", "result": 5, "unit": "%"},
      {"measurement": "Edema D. ± S.E.", "setting": "ARRS-induced edema; after 2 hrs, oral 8 mg/kg", "result": ".649 ± .032"},
      {"measurement": "% of Inhibition", "setting": "ARRS-induced edema; after 2 hrs, oral 40 mg/kg", "result": 17, "unit": "%"},
      {"measurement": "Edema D. ± S.E.", "setting": "ARRS-induced edema; after 2 hrs, oral 40 mg/kg", "result": ".563 ± .016"},
      {"measurement": "% of Inhibition", "setting": "ARRS-induced edema; after 3 hrs, oral 8 mg/kg", "result": 13, "unit": "%"},
      {"measurement": "Edema D. ± S.E.", "setting": "ARRS-induced edema; after 3 hrs, oral 8 mg/kg", "result": ".621 ± .058"},
      {"measurement": "% of Inhibition", "setting": "ARRS-induced edema; after 3 hrs, oral 40 mg/kg", "result": 25, "unit": "%"},
      {"measurement": "Edema D. ± S.E.", "setting": "ARRS-induced edema; after 3 hrs, oral 40 mg/kg", "result": ".535 ± .027"}
    ]}
  ]
}
